Test results reported in ChEMBL document CHEMBL3045200, “Design, synthesis of some 2,6,9-trisubstituted purinyl thioureido derivatives and evaluation of antimicrobial activity” (2012).
Values after ≈ are worked out from the molar mass of the structure shown.

Columns and labels:
Format in all cases: functional
Aspergillus niger = experiment: Antifungal activity against Aspergillus niger by broth serial microdilution method
Klebsiella pneumoniae = experiment: Antibacterial activity against Klebsiella pneumoniae after 24 hr by broth serial microdilution method
Salmonella typhi = experiment: Antibacterial activity against Salmonella enterica subsp. enterica serovar Typhi after 24 hr by broth serial microdilution method
Bacillus subtilis = experiment: Antibacterial activity against Bacillus subtilis after 24 hr by broth serial microdilution method
Staphylococcus aureus = experiment: Antibacterial activity against Staphylococcus aureus after 24 hr by broth serial microdilution method

## Nc1nc(NCC(=O)NC(=S)Nc2nc3ccccc3s2)c2ncn(S(=O)(=O)c3ccccc3)c2n1
Aspergillus niger
  MIC: 550 µM (≈ 297 µg/mL)
Klebsiella pneumoniae
  MIC: 550 µM (≈ 297 µg/mL)
Salmonella typhi
  MIC: 560 µM (≈ 302 µg/mL)
Bacillus subtilis
  MIC: 1290 µM (≈ 696 µg/mL)
Staphylococcus aureus
  MIC: 560 µM (≈ 302 µg/mL)

## Nc1nc(NCC(=O)NC(=S)Nc2nc3c(Cl)cccc3s2)c2ncn(S(=O)(=O)c3ccccc3)c2n1
Aspergillus niger
  MIC: 350 µM (≈ 201 µg/mL)
Klebsiella pneumoniae
  MIC: 170 µM (≈ 97.6 µg/mL)
Salmonella typhi
  MIC: 350 µM (≈ 201 µg/mL)
Bacillus subtilis
  MIC: 350 µM (≈ 201 µg/mL)
Staphylococcus aureus
  MIC: 350 µM (≈ 201 µg/mL)

## Nc1nc(NCC(=O)NC(=S)Nc2nc3cc([N+](=O)[O-])ccc3s2)c2ncn(S(=O)(=O)c3ccccc3)c2n1
Aspergillus niger
  MIC: 510 µM (≈ 298 µg/mL)
Klebsiella pneumoniae
  MIC: 510 µM (≈ 298 µg/mL)
Salmonella typhi
  MIC: 510 µM (≈ 298 µg/mL)
Bacillus subtilis
  MIC: 510 µM (≈ 298 µg/mL)
Staphylococcus aureus
  MIC: 510 µM (≈ 298 µg/mL)

## Nc1nc(NCC(=O)NC(=S)Nc2nc3c([N+](=O)[O-])cccc3s2)c2ncn(S(=O)(=O)c3ccccc3)c2n1
Aspergillus niger
  MIC: 510 µM (≈ 298 µg/mL)
Klebsiella pneumoniae
  MIC: 510 µM (≈ 298 µg/mL)
Salmonella typhi
  MIC: 510 µM (≈ 298 µg/mL)
Bacillus subtilis
  MIC: 510 µM (≈ 298 µg/mL)
Staphylococcus aureus
  MIC: 510 µM (≈ 298 µg/mL)

## Nc1nc(NCC(=O)NC(=S)Nc2nc3ccc(F)cc3s2)c2ncn(S(=O)(=O)c3ccccc3)c2n1
Aspergillus niger
  MIC: 360 µM (≈ 201 µg/mL)
Klebsiella pneumoniae
  MIC: 180 µM (≈ 100 µg/mL)
Salmonella typhi
  MIC: 360 µM (≈ 201 µg/mL)
Bacillus subtilis
  MIC: 360 µM (≈ 201 µg/mL)
Staphylococcus aureus
  MIC: 530 µM (≈ 296 µg/mL)

## COc1ccc2nc(NC(=S)NC(=O)CNc3nc(N)nc4c3ncn4S(=O)(=O)c3ccccc3)sc2c1
Aspergillus niger
  MIC: 180 µM (≈ 103 µg/mL)
Klebsiella pneumoniae
  MIC: 350 µM (≈ 199 µg/mL)
Salmonella typhi
  MIC: 540 µM (≈ 308 µg/mL)
Bacillus subtilis
  MIC: 180 µM (≈ 103 µg/mL)
Staphylococcus aureus
  MIC: 350 µM (≈ 199 µg/mL)

## Nc1nc(NCC(=O)NC(=S)Nc2nc3ccc(Cl)cc3s2)c2ncn(S(=O)(=O)c3ccccc3)c2n1
Aspergillus niger
  MIC: 350 µM (≈ 201 µg/mL)
Klebsiella pneumoniae
  MIC: 350 µM (≈ 201 µg/mL)
Salmonella typhi
  MIC: 530 µM (≈ 304 µg/mL)
Bacillus subtilis
  MIC: 350 µM (≈ 201 µg/mL)
Staphylococcus aureus
  MIC: 520 µM (≈ 299 µg/mL)

## Cc1ccc2nc(NC(=S)NC(=O)CNc3nc(N)nc4c3ncn4S(=O)(=O)c3ccccc3)sc2c1
Aspergillus niger
  MIC: 540 µM (≈ 299 µg/mL)
Klebsiella pneumoniae
  MIC: 540 µM (≈ 299 µg/mL)
Salmonella typhi
  MIC: 530 µM (≈ 293 µg/mL)
Bacillus subtilis
  MIC: 540 µM (≈ 299 µg/mL)
Staphylococcus aureus
  MIC: 540 µM (≈ 299 µg/mL)

## Nc1nc(NCC(=O)NC(=S)Nc2nc3ccc([N+](=O)[O-])cc3s2)c2ncn(S(=O)(=O)c3ccccc3)c2n1
Aspergillus niger
  MIC: 510 µM (≈ 298 µg/mL)
Klebsiella pneumoniae
  MIC: 510 µM (≈ 298 µg/mL)
Salmonella typhi
  MIC: 510 µM (≈ 298 µg/mL)
Bacillus subtilis
  MIC: 510 µM (≈ 298 µg/mL)
Staphylococcus aureus
  MIC: 510 µM (≈ 298 µg/mL)

## COc1ccc2sc(NC(=S)NC(=O)CNc3nc(N)nc4c3ncn4S(=O)(=O)c3ccccc3)nc2c1
Aspergillus niger
  MIC: 350 µM (≈ 199 µg/mL)
Klebsiella pneumoniae
  MIC: 530 µM (≈ 302 µg/mL)
Salmonella typhi
  MIC: 350 µM (≈ 199 µg/mL)
Bacillus subtilis
  MIC: 350 µM (≈ 199 µg/mL)
Staphylococcus aureus
  MIC: 530 µM (≈ 302 µg/mL)

## CC1(C)S[C@@H]2[C@H](NC(=O)[C@H](N)c3ccccc3)C(=O)N2[C@H]1C(=O)O [AMPICILLIN]
Klebsiella pneumoniae
  MIC: 130 µM (≈ 45.4 µg/mL)
Salmonella typhi
  MIC: 200 µM (≈ 69.9 µg/mL)
Bacillus subtilis
  MIC: 270 µM (≈ 94.3 µg/mL)
Staphylococcus aureus
  MIC: 130 µM (≈ 45.4 µg/mL)

## O=C(O)c1cn(C2CC2)c2cc(N3CCNCC3)c(F)cc2c1=O [CIPROFLOXACIN]
Klebsiella pneumoniae
  MIC: 120 µM (≈ 39.8 µg/mL)
Salmonella typhi
  MIC: 190 µM (≈ 63 µg/mL)
Bacillus subtilis
  MIC: 250 µM (≈ 82.8 µg/mL)
Staphylococcus aureus
  MIC: 190 µM (≈ 63 µg/mL)

## OC(Cn1cncn1)(Cn1cncn1)c1ccc(F)cc1F [FLUCONAZOLE]
Aspergillus niger
  MIC: 350 µM (≈ 107 µg/mL)
